Test systems include HS 578T breast; KM12 colon; NCI-H522 lung; HOP-62 NSCLC; ACHN renal; SNB-19 CNS; SK-MEL-28 melanoma; 786-0 renal; UO-31 renal; SK-MEL-2 melanoma.
What all share (test): DTP human tumour cell line panel, 48 h

Values joined by “and” are separate entries in the source; they are usually repeats but may differ in a detail not shown here. Identical values can stand only once.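 Exposure lasted 48 hours, with cells grown in 96-well plates and compounds tested at five concentrations. Here, GI50 denotes the concentration required for 50% inhibition of growth. At the TGI there is no net growth.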

As for `Cc1nn(-c2ccc(F)cc2)c2ncnc(Nc3ccc(NC(=O)Nc4ccc(Cl)c(C(F)(F)F)c4)cc3)c12`, the GI50 (as a rule, the concentration that inhibits growth by half) is 2.66 µM in the assay with HS 578T breast; 2.66 µM in the assay with KM12 colon; 1.74 µM in the assay on NCI-H522 lung; 2.25 µM in the assay with HOP-62 NSCLC; 1.75 µM in the assay with ACHN renal; 2.93 µM in the assay with SNB-19 CNS. In addition, the GI50 in the assay on SK-MEL-28 melanoma was 2.18 µM; with 786-0 renal, 1.98 µM; with UO-31 renal it was 1.65 µM; in the assay on SK-MEL-2 melanoma, 2.37 µM. Also, the TGI (usually the concentration at which net growth stops) in the assay on HS 578T breast was found to be 9.47 µM; with KM12 colon, 10.9 µM; with NCI-H522 lung, 4.42 µM; in the assay with HOP-62 NSCLC it was 6.83 µM; in the assay on ACHN renal it was 5.62 µM; in the assay on SNB-19 CNS, 10.2 µM. For the same compound, the TGI is 5.68 µM in the assay on SK-MEL-28 melanoma, 5.85 µM in the assay with 786-0 renal, 4.17 µM in the assay with UO-31 renal and 5.66 µM in the assay with SK-MEL-2 melanoma.

In the case of `CSc1nc(SC)c2c(CN=[N+]=[N-])c(Br)n(Cc3ccccc3)c2n1`, the TGI with HS 578T breast, with KM12 colon, with NCI-H522 lung, with HOP-62 NSCLC, in the assay on ACHN renal and in the assay on SNB-19 CNS was more than 100 µM each time. Moreover, the TGI in the assay with SK-MEL-28 melanoma, in the assay with 786-0 renal, in the assay on UO-31 renal and in the assay on SK-MEL-2 melanoma was more than 100 µM each time.

Take `COC1(C(=O)N2Cc3nc(Cl)nc(N[C@H](C)c4cc(N)cc(C(F)(F)F)c4)c3C2)CCOCC1`: the GI50 is 17.7 µM in the assay on HS 578T breast; 13.6 µM with KM12 colon; 9.23 µM in the assay on NCI-H522 lung; 15.2 µM in the assay on HOP-62 NSCLC; 18.5 µM in the assay on ACHN renal; 14.5 µM in the assay with SNB-19 CNS. Also, the GI50 was 16.2 µM with SK-MEL-28 melanoma, 18.7 µM in the assay with 786-0 renal, 7.63 µM with UO-31 renal and 16.7 µM with SK-MEL-2 melanoma. Further, the TGI with HS 578T breast was 80.3 µM; in the assay with KM12 colon it was 54.3 µM; with NCI-H522 lung it was 55.2 µM; in the assay on HOP-62 NSCLC it was 36 µM; in the assay with ACHN renal it was 71.4 µM; in the assay with SNB-19 CNS, 72 µM. Moreover, the TGI in the assay with SK-MEL-28 melanoma came out at 30.9 µM; in the assay with 786-0 renal, 68.4 µM; in the assay with UO-31 renal, 43.3 µM; with SK-MEL-2 melanoma, 33.6 µM.

Consider `CNC(=O)c1ccccc1CC1(O)c2ccccc2Oc2ccccc21`, for which the GI50 with HS 578T breast was 16.6 µM; in the assay with KM12 colon, 8.15 µM; in the assay on NCI-H522 lung, 8.39 µM; in the assay with HOP-62 NSCLC, 17.2 µM; in the assay on ACHN renal it was 26.2 µM; with SNB-19 CNS it was 24.6 µM. Moreover, the GI50 in the assay on SK-MEL-28 melanoma was 23.2 µM; in the assay with 786-0 renal, 20.3 µM; in the assay with UO-31 renal it was 29.4 µM; in the assay with SK-MEL-2 melanoma, 14.2 µM. Besides, the TGI was 57.1 µM in the assay on HS 578T breast; 44.6 µM in the assay on KM12 colon; 37.3 µM with NCI-H522 lung; 74.5 µM in the assay on HOP-62 NSCLC; more than 100 µM with ACHN renal; more than 100 µM in the assay with SNB-19 CNS. The concentration for total growth inhibition (TGI) in the assay on SK-MEL-28 melanoma was more than 100 µM; in the assay on 786-0 renal, 46.4 µM; with UO-31 renal it was more than 100 µM; in the assay on SK-MEL-2 melanoma, 34.5 µM.

As for `O=c1cc(-c2cccc(F)c2)[nH]c2cc3c(cc12)OCO3`, the total growth inhibition concentration (TGI) in the assay on HS 578T breast was 0.181 µM; with NCI-H522 lung, 0.406 µM and 0.112 µM; with HOP-62 NSCLC, 21.3 µM; in the assay with ACHN renal, 75 µM and > 59.5 µM; with SNB-19 CNS, 75 µM and > 45.3 µM; in the assay on SK-MEL-28 melanoma it was 75 µM and > 72.4 µM. In addition, the TGI is 75 µM and 17.7 µM with 786-0 renal; 75 µM and > 63.4 µM in the assay on UO-31 renal; 2.9 µM and 23.6 µM with SK-MEL-2 melanoma. Also, the GI50 in the assay on KM12 colon was 0.332 µM; with NCI-H522 lung it was 0.172 µM; in the assay with ACHN renal, 0.432 µM; with SNB-19 CNS, 0.324 µM; with SK-MEL-28 melanoma, 0.359 µM; in the assay with 786-0 renal, 0.346 µM. Besides, the GI50 is 0.47 µM with UO-31 renal and 0.23 µM in the assay on SK-MEL-2 melanoma.

For the compound `CC(C)(C)OC(=O)n1cc(CNC(=S)Nc2ccccc2)c2ccccc21`, the GI50 in the assay on HS 578T breast was 13.7 µM; in the assay on KM12 colon, 5.34 µM; with NCI-H522 lung, more than 100 µM; with HOP-62 NSCLC, 17.2 µM; with ACHN renal, 5.12 µM; in the assay on SNB-19 CNS, 15.3 µM. The GI50 was 27.4 µM in the assay on SK-MEL-28 melanoma, 17.7 µM in the assay with 786-0 renal, 26.5 µM in the assay on UO-31 renal and 36.3 µM with SK-MEL-2 melanoma. Further, the TGI with HS 578T breast was 42.2 µM; in the assay with KM12 colon it was 18.4 µM; in the assay on NCI-H522 lung, more than 100 µM; in the assay with HOP-62 NSCLC it was 38 µM; with ACHN renal, 19.6 µM; with SNB-19 CNS, 61.7 µM. Further, the TGI with SK-MEL-28 melanoma was 95.3 µM; with 786-0 renal it was 34.5 µM; with UO-31 renal it was more than 100 µM; with SK-MEL-2 melanoma, more than 100 µM.

For `CN1CCN(Cc2ccc(C(=O)Nc3cncc(C#Cc4cnc(N)c5ccccc45)c3)cc2C(F)(F)F)CC1`, the GI50 with HS 578T breast is 2.98 µM; in the assay on KM12 colon, 0.788 µM; in the assay with NCI-H522 lung, 1.95 µM; in the assay on HOP-62 NSCLC, 2.19 µM; with ACHN renal, 1.52 µM; in the assay with SNB-19 CNS, 2.49 µM. In addition, the GI50 with SK-MEL-28 melanoma is 1.75 µM; in the assay on 786-0 renal it was 1.78 µM; in the assay on UO-31 renal, 1.59 µM; in the assay on SK-MEL-2 melanoma, 2.29 µM. For the same compound, the TGI in the assay with HS 578T breast was 14.6 µM; in the assay on KM12 colon, 2.48 µM; with NCI-H522 lung, 4.26 µM; with HOP-62 NSCLC, 4.42 µM; in the assay on ACHN renal, 2.97 µM; in the assay with SNB-19 CNS it was 5.69 µM. The concentration for total growth inhibition (TGI) is 3.22 µM in the assay on SK-MEL-28 melanoma, 3.25 µM in the assay with 786-0 renal, 2.98 µM with UO-31 renal and 5.2 µM with SK-MEL-2 melanoma.

With `CCn1c(-c2nonc2N)nc2c(C#CCN)ncc(OCCCN)c21`, the GI50 with HS 578T breast, in the assay with KM12 colon, in the assay with NCI-H522 lung, in the assay on HOP-62 NSCLC, in the assay with ACHN renal and in the assay with SNB-19 CNS was more than 25 µM in each case. For the same compound, the GI50 in the assay with SK-MEL-28 melanoma, in the assay with 786-0 renal, with UO-31 renal and with SK-MEL-2 melanoma was more than 25 µM throughout. In addition, the TGI in the assay with HS 578T breast, in the assay on KM12 colon, in the assay on NCI-H522 lung, with HOP-62 NSCLC, in the assay on ACHN renal and in the assay with SNB-19 CNS was more than 25 µM throughout. Also, the TGI with SK-MEL-28 melanoma, with 786-0 renal, with UO-31 renal and in the assay on SK-MEL-2 melanoma was more than 25 µM in each case.

Source of the values: PubChem BioAssay (NCI).
